Source: patent US20260226493A1, “HERBICIDE RESISTANT PLANTS” (SYNGENTA CROP PROTECTION AG, priority 2023, published 2026)

Assays:
Assay in all cases: BIO3-BIO1 mutant enzyme activity in the presence of herbicide, percentage inhibition (fluorometric DAPA assay)
Format in all cases: biochemical
Conditions in all cases: read-out: percentage inhibition
[1] = biological target: T1, Arabidopsis thaliana BIO3-BIO1 (BioDA) mutants (Arabidopsis thaliana, UniProt B0F481, A609F)
T1 construct: with the predicted N-terminal mitochondrial transit peptide removed; 6xHis-tag (N); thrombin cleavage site (N); made in house; host or cells: E. coli BL21 (DE3) bioA
T1 sequence (B0F481 23-833 A609F): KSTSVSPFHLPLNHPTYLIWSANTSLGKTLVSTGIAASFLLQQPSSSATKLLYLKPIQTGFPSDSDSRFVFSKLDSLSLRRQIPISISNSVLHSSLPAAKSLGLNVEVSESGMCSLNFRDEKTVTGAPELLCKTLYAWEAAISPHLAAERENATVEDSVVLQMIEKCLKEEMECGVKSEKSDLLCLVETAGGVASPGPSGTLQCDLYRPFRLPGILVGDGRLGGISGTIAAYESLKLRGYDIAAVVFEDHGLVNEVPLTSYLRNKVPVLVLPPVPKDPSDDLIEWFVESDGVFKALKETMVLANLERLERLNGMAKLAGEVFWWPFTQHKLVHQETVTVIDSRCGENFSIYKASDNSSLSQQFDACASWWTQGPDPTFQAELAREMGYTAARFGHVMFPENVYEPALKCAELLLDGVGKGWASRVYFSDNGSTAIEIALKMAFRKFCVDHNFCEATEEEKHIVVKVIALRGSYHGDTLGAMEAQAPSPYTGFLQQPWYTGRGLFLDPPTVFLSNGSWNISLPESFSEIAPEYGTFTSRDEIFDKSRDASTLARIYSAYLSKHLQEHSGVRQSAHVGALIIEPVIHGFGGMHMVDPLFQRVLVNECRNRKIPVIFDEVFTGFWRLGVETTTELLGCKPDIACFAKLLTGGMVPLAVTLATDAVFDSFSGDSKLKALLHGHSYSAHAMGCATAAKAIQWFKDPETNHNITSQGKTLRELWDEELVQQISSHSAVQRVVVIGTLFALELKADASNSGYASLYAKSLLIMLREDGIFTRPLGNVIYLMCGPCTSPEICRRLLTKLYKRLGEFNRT
Source text: (§1) A pet-24 plasmid containing a DNA sequence encoding each identified variant mutant of BIO3-BIO1 derived from Arabidopsis thaliana from example 5 above, as shown in Table 13 below and as shown in full in SEQ ID NOs: 15 to 155, codon-optimised for expression in E. coli, with an N-terminal 6×His-tag and thrombin cleavage site and under control of a T7 promoter, and was synthesised by Twist Bioscience, in a similar manner to SEQ ID NO:311. These plasmids were then expressed in E. coli BL21 (DE3) bioA with 50 μg/mL kanamycin and 25 μg/mL chloramphenicol selection. Overnight cultures grown at 37° C. were used to inoculate 8×500 mL AIM in shake flasks at a ratio of 1:100. Cultures were grown at 37° C., 200 rpm for 3.5 hours and then overnight at 20° C. Cells were harvested by centrifugation for 30 minutes at 10 000 g. Cells were stored at −80° C. until extraction. 30 g of cell pellet from was thawed in 120 mL of IMAC buffer A (20 mM HEPES pH7.5, 25 mM imidazole, 500 mM sodium chloride, 0.15 mM pyridoxal phosphate, 0.5 mM TCEP, 1× complete Protease Inhibitor Tablet (Roche)). The resuspension was passed through a cell disrupter at 18 000 PSI and centrifuged at 50 000 g for 25 minutes at 4° C. The His-tagged BIO3-BIO1 protein was purified from the extract supernatant on an AKTA avant chromatography system (Cytiva) using a HisTrap FF column and eluted in IMAC buffer B ((20 mM HEPES pH7.5, 500 mM imidazole, 500 mM sodium chloride, 0.15 mM pyridoxal phosphate, 0.5 mM TCEP) followed by SEC using a HiLoad 26/60 Superdex200 column in SEC buffer (25 mM HEPES pH7.5, 150 mM sodium chloride, 0.15 mM pyridoxal phosphate, 0.5 mM TCEP). Protein concentration was measured and calculated using the absorbance at 280 nm. Extracts were diluted 1 in 4 and 10 uL was analysed by SDS PAGE.
(§2) To measure BIO3-BIO1 mutant enzyme activity in the presence of herbicide, herbicides were incubated with 20 μL of enzyme mix (100 mM EPPS pH 8.6, 0.1 mM pyridoxal phosphate, 0.1 mg/mL BSA, 50 nM BIO3-BIO1 enzyme) for 10 minutes at 20° C. in a well of a 96-well half-area black plate, followed by the addition of 20 μL of substrate mix (final concentration of 100 mM EPPS pH 8.6, 0.1 mM pyridoxal phosphate, 0.1 mg/mL BSA, 100 μM spermidine, 20 μM KAPA, 100 mM NaCO3) and further incubation for 75 minutes at 20° C. The reaction was terminated by the addition of 50 μL of derivatisation mix (final concentration of 250 mM borate NaOH pH 9.4, 3.6 mM o-phthalaldehyde, 7 mM β-mercaptoethanol, 17% (v/v) ethanol, 3.6% (v/v) methanol). The fluorescent product produced by the reaction of DAPA with o-phthalaldehyde and 7 mM β-mercaptoethanol was measured at 470 nm after excitation at 410 nm. The percentage inhibition was calculated as the activity in the presence of one of three concentrations of each herbicide compound A to M (note that the compounds labelled as A to M are identified hereinabove in the relevant section of the description) as a percentage of the activity in DMSO (Table 12 and 13). The percentage activity versus WT was also calculated and is shown in Table 13 and 14 (NT indicates mutation not tested in table 13, note that these mutations are tested at different compound concentrations for compounds L, M and C, and the results are shown in table 14).

[2] = biological target: T2, Arabidopsis thaliana BIO3-BIO1 (BioDA) mutants (Arabidopsis thaliana, UniProt B0F481, F348D)
T2 construct: with the predicted N-terminal mitochondrial transit peptide removed; 6xHis-tag (N); thrombin cleavage site (N); made in house; host or cells: E. coli BL21 (DE3) bioA
T2 sequence (B0F481 23-833 F348D): as the sequence (B0F481 23-833 A609F) above, with F326D, F587A counted along it
Source text: as §1, §2

[3] = biological target: T3, Arabidopsis thaliana BIO3-BIO1 (BioDA) mutants (Arabidopsis thaliana, UniProt B0F481, F348Q)
T3 construct: with the predicted N-terminal mitochondrial transit peptide removed; 6xHis-tag (N); thrombin cleavage site (N); made in house; host or cells: E. coli BL21 (DE3) bioA
T3 sequence (B0F481 23-833 F348Q): as the sequence (B0F481 23-833 A609F) above, with F326Q, F587A counted along it
Source text: as §1, §2

[4] = biological target: T4, Arabidopsis thaliana BIO3-BIO1 (BioDA) mutants (Arabidopsis thaliana, UniProt B0F481, P421A)
T4 construct: with the predicted N-terminal mitochondrial transit peptide removed; 6xHis-tag (N); thrombin cleavage site (N); made in house; host or cells: E. coli BL21 (DE3) bioA
T4 sequence (B0F481 23-833 P421A): as the sequence (B0F481 23-833 A609F) above, with P399A, F587A counted along it
Source text: as §1, §2

[5] = biological target: T5, Arabidopsis thaliana BIO3-BIO1 (BioDA) mutants (Arabidopsis thaliana, UniProt B0F481, A609H)
T5 construct: with the predicted N-terminal mitochondrial transit peptide removed; 6xHis-tag (N); thrombin cleavage site (N); made in house; host or cells: E. coli BL21 (DE3) bioA
T5 sequence (B0F481 23-833 A609H): as the sequence (B0F481 23-833 A609F) above, with F587H counted along it
Source text: as §1, §2

[6] = biological target: T6, Arabidopsis thaliana BIO3-BIO1 (BioDA) mutants (Arabidopsis thaliana, UniProt B0F481, S509Y)
T6 construct: with the predicted N-terminal mitochondrial transit peptide removed; 6xHis-tag (N); thrombin cleavage site (N); made in house; host or cells: E. coli BL21 (DE3) bioA
T6 sequence (B0F481 23-833 S509Y): as the sequence (B0F481 23-833 A609F) above, with S487Y, F587A counted along it
Source text: as §1, §2

[7] = biological target: T7, Arabidopsis thaliana BIO3-BIO1 (BioDA) mutants (Arabidopsis thaliana, UniProt B0F481, S509E)
T7 construct: with the predicted N-terminal mitochondrial transit peptide removed; 6xHis-tag (N); thrombin cleavage site (N); made in house; host or cells: E. coli BL21 (DE3) bioA
T7 sequence (B0F481 23-833 S509E): as the sequence (B0F481 23-833 A609F) above, with S487E, F587A counted along it
Source text: as §1, §2

[8] = biological target: T8, Arabidopsis thaliana BIO3-BIO1 (BioDA) mutants (Arabidopsis thaliana, UniProt B0F481, S509F)
T8 construct: with the predicted N-terminal mitochondrial transit peptide removed; 6xHis-tag (N); thrombin cleavage site (N); made in house; host or cells: E. coli BL21 (DE3) bioA
T8 sequence (B0F481 23-833 S509F): as the sequence (B0F481 23-833 A609F) above, with S487F, F587A counted along it
Source text: as §1, §2

[9] = biological target: T9, Arabidopsis thaliana BIO3-BIO1 (BioDA) mutants (Arabidopsis thaliana, UniProt B0F481, Y511Q)
T9 construct: with the predicted N-terminal mitochondrial transit peptide removed; 6xHis-tag (N); thrombin cleavage site (N); made in house; host or cells: E. coli BL21 (DE3) bioA
T9 sequence (B0F481 23-833 Y511Q): as the sequence (B0F481 23-833 A609F) above, with Y489Q, F587A counted along it
Source text: as §1, §2

[10] = biological target: T10, Arabidopsis thaliana BIO3-BIO1 (BioDA) mutants (Arabidopsis thaliana, UniProt B0F481, W391M)
T10 construct: with the predicted N-terminal mitochondrial transit peptide removed; 6xHis-tag (N); thrombin cleavage site (N); made in house; host or cells: E. coli BL21 (DE3) bioA
T10 sequence (B0F481 23-833 W391M): as the sequence (B0F481 23-833 A609F) above, with W369M, F587A counted along it
Source text: as §1, §2

[11] = biological target: T11, Arabidopsis thaliana BIO3-BIO1 (BioDA) mutants (Arabidopsis thaliana, UniProt B0F481, S509I)
T11 construct: with the predicted N-terminal mitochondrial transit peptide removed; 6xHis-tag (N); thrombin cleavage site (N); made in house; host or cells: E. coli BL21 (DE3) bioA
T11 sequence (B0F481 23-833 S509I): as the sequence (B0F481 23-833 A609F) above, with S487I, F587A counted along it
Source text: as §1, §2

[12] = biological target: T12, Arabidopsis thaliana BIO3-BIO1 (BioDA) mutants (Arabidopsis thaliana, UniProt B0F481, S509A)
T12 construct: with the predicted N-terminal mitochondrial transit peptide removed; 6xHis-tag (N); thrombin cleavage site (N); made in house; host or cells: E. coli BL21 (DE3) bioA
T12 sequence (B0F481 23-833 S509A): as the sequence (B0F481 23-833 A609F) above, with S487A, F587A counted along it
Source text: as §1, §2

**Q.** `CCn1c(Cn2ccc(C(F)(F)F)n2)cc(=O)c(C(=O)O)c1-c1ccc(Cl)c(Cl)c1` [Compound L, 2-(3,4-dichlorophenyl)-1-ethyl-4-oxo-6-[[3-(trifluoromethyl)pyrazol-1-yl]methyl]pyridine-3-carboxylic acid] was tested. Which inhibition at 0.01 µM [1] did it give?
**A.** Its inhibition at 0.01 µM is 10%.

**Q.** What about the inhibition at 0.075 µM [1] of the same compound?
**A.** Its inhibition at 0.075 µM is 0%.

**Q.** And the inhibition at 0.5 µM [1]?
**A.** The inhibition at 0.5 µM was 16%.

**Q.** And the inhibition at 0.01 µM [2]?
**A.** Its inhibition at 0.01 µM is 0%.

**Q.** What about the inhibition at 0.075 µM [2] of the same compound?
**A.** The inhibition at 0.075 µM was 1%.

**Q.** What about the inhibition at 0.5 µM [2] of the same compound?
**A.** The inhibition at 0.5 µM was 2%.

**Q.** What about the inhibition at 0.01 µM [3] of the same compound?
**A.** Its inhibition at 0.01 µM is 0%.

**Q.** What about the inhibition at 0.075 µM [3] of the same compound?
**A.** Its inhibition at 0.075 µM is 0%.

**Q.** And the inhibition at 0.5 µM [3]?
**A.** The inhibition at 0.5 µM was 3%.

**Q.** And the inhibition at 0.01 µM [4]?
**A.** Its inhibition at 0.01 µM is 15%.

**Q.** And the inhibition at 0.075 µM [4]?
**A.** Its inhibition at 0.075 µM is 16%.

**Q.** What about the inhibition at 0.5 µM [4] of the same compound?
**A.** The inhibition at 0.5 µM was 21%.

**Q.** And the inhibition at 0.01 µM [5]?
**A.** Its inhibition at 0.01 µM is 0%.

**Q.** And the inhibition at 0.075 µM [5]?
**A.** Its inhibition at 0.075 µM is 0%.

**Q.** And the inhibition at 0.5 µM [5]?
**A.** The inhibition at 0.5 µM was 0%.

**Q.** For `CCn1c(-c2ccc(Cl)c(Cl)c2)c(C(=O)O)c(=O)c2cc(F)ccc21` [Compound M, 2-(3,4-dichlorophenyl)-1-ethyl-6-fluoro-4-oxo-quinoline-3-carboxylic acid], which inhibition at 0.2 µM [1] is on record?
**A.** The inhibition at 0.2 µM was 19%.

**Q.** And the inhibition at 1 µM [1]?
**A.** The inhibition at 1 µM was 26%.

**Q.** What about the inhibition at 5 µM [1] of the same compound?
**A.** Its inhibition at 5 µM is 66%.

**Q.** What about the inhibition at 0.2 µM [2] of the same compound?
**A.** Its inhibition at 0.2 µM is 0%.

**Q.** And the inhibition at 1 µM [2]?
**A.** Its inhibition at 1 µM is 2%.

**Q.** What about the inhibition at 5 µM [2] of the same compound?
**A.** Its inhibition at 5 µM is 0%.

**Q.** And the inhibition at 0.2 µM [6]?
**A.** The inhibition at 0.2 µM was 28%.

**Q.** What about the inhibition at 1 µM [6] of the same compound?
**A.** Its inhibition at 1 µM is 58%.

**Q.** What about the inhibition at 5 µM [6] of the same compound?
**A.** Its inhibition at 5 µM is 85%.

**Q.** And the inhibition at 0.2 µM [3]?
**A.** Its inhibition at 0.2 µM is 0%.

**Q.** What about the inhibition at 1 µM [3] of the same compound?
**A.** Its inhibition at 1 µM is 0%.

**Q.** What about the inhibition at 5 µM [3] of the same compound?
**A.** Its inhibition at 5 µM is 16%.

**Q.** What about the inhibition at 0.2 µM [4] of the same compound?
**A.** The inhibition at 0.2 µM was 15%.

**Q.** And the inhibition at 1 µM [4]?
**A.** Its inhibition at 1 µM is 11%.

**Q.** And the inhibition at 5 µM [4]?
**A.** Its inhibition at 5 µM is 17%.

**Q.** What about the inhibition at 0.2 µM [7] of the same compound?
**A.** The inhibition at 0.2 µM was 40%.

**Q.** What about the inhibition at 1 µM [7] of the same compound?
**A.** Its inhibition at 1 µM is 73%.

**Q.** What about the inhibition at 5 µM [7] of the same compound?
**A.** Its inhibition at 5 µM is 93%.

**Q.** And the inhibition at 0.2 µM [8]?
**A.** Its inhibition at 0.2 µM is 19%.

**Q.** And the inhibition at 1 µM [8]?
**A.** Its inhibition at 1 µM is 58%.

**Q.** What about the inhibition at 5 µM [8] of the same compound?
**A.** Its inhibition at 5 µM is 89%.

**Q.** And the inhibition at 0.2 µM [9]?
**A.** The inhibition at 0.2 µM was 54%.

**Q.** And the inhibition at 1 µM [9]?
**A.** The inhibition at 1 µM was 87%.

**Q.** And the inhibition at 5 µM [9]?
**A.** The inhibition at 5 µM was 95%.

**Q.** And the inhibition at 0.2 µM [10]?
**A.** Its inhibition at 0.2 µM is 27%.

**Q.** And the inhibition at 1 µM [10]?
**A.** The inhibition at 1 µM was 37%.

**Q.** What about the inhibition at 5 µM [10] of the same compound?
**A.** Its inhibition at 5 µM is 84%.

**Q.** What about the inhibition at 0.2 µM [11] of the same compound?
**A.** The inhibition at 0.2 µM was 30%.

**Q.** And the inhibition at 1 µM [11]?
**A.** The inhibition at 1 µM was 65%.

**Q.** And the inhibition at 5 µM [11]?
**A.** Its inhibition at 5 µM is 92%.

**Q.** And the inhibition at 0.2 µM [5]?
**A.** Its inhibition at 0.2 µM is 7%.

**Q.** What about the inhibition at 1 µM [5] of the same compound?
**A.** The inhibition at 1 µM was 2%.

**Q.** What about the inhibition at 5 µM [5] of the same compound?
**A.** The inhibition at 5 µM was 25%.

**Q.** What about the inhibition at 0.2 µM [12] of the same compound?
**A.** The inhibition at 0.2 µM was 0%.

**Q.** And the inhibition at 1 µM [12]?
**A.** The inhibition at 1 µM was 33%.

**Q.** What about the inhibition at 5 µM [12] of the same compound?
**A.** Its inhibition at 5 µM is 81%.
